Data on 6 compounds can be found in patent publication US20250332078A1, “COSMETIC AND/OR PHARMACEUTICAL COMPOSITIONS CONTAINING CANNABINOIDS” (priority 2020, published 2025).

In general, inhibition refers to the drop in the measured response relative to a control, in per cent.

For one series, the system named is IL8. The experiment in a line: IL8 ELISA on HaCaT cells, inflammation triggered with IL1α. The format is cell-based, human. The conditions noted are these: for IL8 inhibition / inhibition at 2.2 µM / inhibition at 4.6 µM / inhibition at 10 µM: HaCaT; for anti-inflammatory activity (IL8 secretion), in words: Example 2; for inhibition at 2.2 µM / inhibition at 4.6 µM / inhibition at 10 µM: Homo sapiens, read-out: IL8 inhibition. The source says: Inflammation in the skin occurs after UV or chemical exposure, microbial infection or wounding to form a defense against pathogens. However, inflammation in response to UV is associated with degenerative processes in the skin resulting in photoaging, wrinkle and age spot formation. In order to identify the Anti-inflammatory (AI) potential of the test samples the inflammatory mediators interleukin 8 (IL8) were quantified, which initiate and mediate inflammation through recruitment of inflammatory cells from the vasculature. Another object has been identification of the synergistic activity of the test substances. For this purpose, the individual cellular AI potential of bisabolol and synthetic CBD (hereinafter referred to as “SymDStress” obtained from Symrise AG, Holzminden, Germany) with their combination in 100:5, 100:4, 100:3, 100:2 and 100:1 ratios were examined.
Interleukin 8 (IL-8) or CXCL8 is a chemokine produced by macrophages and other cell types such as epithelial cells, airway smooth muscle cells and endothelial cells. In humans, the interleukin-8 protein is encoded by the IL8 gene IL-8 is initially produced as a precursor which undergoes cleavage to create several active IL-8 isoforms. In culture, a 72 amino acid peptide is the major form secreted by all kinds of cells. Interleukin-8 is a key mediator associated with inflammation where it plays a key role in neutrophil recruitment and neutrophil degranulation. As an example, it has been cited as a pro-inflammatory mediator in gingivitis, psoriasis and other diseases. IL8 secretion is increased by various kinds of stress including UV & oxidant stress, which thereby cause the recruitment of inflammatory cells and induces a further increase in oxidant stress mediators, making it a key parameter in localized inflammation.
The ELISA assay uses a solid-phase type of enzyme immunoassay (EIA) to detect the presence of a protein in a liquid sample using antibodies directed against the protein to be measured. Performing an ELISA involves at least one antibody with specificity for that particular protein. The sample with an unknown amount of protein is immobilized on a solid support (usually a polystyrene microtiter plate). After the protein is immobilized, the detection antibody is added, forming a complex with the protein. The detection antibody can be covalently linked to an enzyme or can itself be detected by a secondary antibody that is linked to an enzyme through bio-conjugation. Between each step, the plate is typically washed with a mild detergent solution to remove any proteins or antibodies that are non-specifically bound. After the final wash step, the plate is developed by adding an enzymatic substrate to produce a visible signal, which indicates the quantity the protein to be measured in the sample.
In the present test approach, the IL8 produced and secreted by cells were determined in an Enzyme linked immunosorbance assay (ELISA) from cell supernatants utilizing antibodies detecting the IL8. The assay was performed on HaCaT cells by addition of test substances and their incubation for 6 h (37° C.). Afterwards, inflammation was triggered with IL1α for 2 h or respectively 24 h and IL8 was measured. Therefore, the quantitative sandwich enzyme immunoassay technique was employed. A monoclonal antibody specific for human IL-8 was pre-coated onto a microplate. Standards and samples/supernatants were pipetted into the wells and any IL-8 present was bound by the immobilized antibody. After washing away any unbound substances, an enzyme-linked polyclonal antibody specific for human IL-8 was added to the wells. Following a wash to remove any unbound antibody-enzyme reagent, a substrate solution was added. A color developed in proportion to the amount of IL-8 bound in the initial step. Therefore, the IL8 concentrations for unknown samples are interpolated from the standard curve. […]

The nature of series [1]: ABTS assay, chemical anti-oxidative capacity. On the procedure:
The ABTS-Assay is a cell free in vitro test for the evaluation of the chemical AOX capacity. The assay principle bases on the reduction and the involved de-colorization of the green colored cationic radical 2,2′-Azinobis(3-ethylbenzothiazoline 6-sulfonic acid) (ABTS+) by antioxidants. The de-colorization can be measured photometrically at 734 nm. Determination of the anti-oxidative capacity is performed in 96-well microplates from Nunc (Wiesbaden, Germany) and with the microplate reader “Spark” from Tecan (Crailsheim, Germany).
Samples were incubated for 10 min at 30° C. with the 2,2′-Azinobis-(3-ethylbenzothiazoline-6-sulfonate (ABTS) radical cation (Sigma, St. Louis, USA) obtained by chemical conversion of ABTS with potassium persulfate (K2S2O8). As a positive control Trolox was co-tested. The degree of de-colorization was determined photometrically at 734 nm. Results are averaged from 2 independent experiments performed in quadruple technical replicates. The anti-oxidative capacity is expressed in IC50 values (concentration that scavenges 50% of the cationic radical relative to the untreated ABTS solution), which is determined by 4-parameter logistic regression.

Series [2] is described as follows: Recrystallization in emulsion (Olympus microscope IX-70, polarized light). Format: physicochemical. On the procedure: To save energy and reduce CO2 there's a trend for cold process emulsions. So it's recommended to use liquid ingredients or well soluble ingredients. […] Recrystallization is evaluated with Olympus microscope IX-70 (60fold) polarized light. As synergist effects in terms of efficacy had been observed, SymDStress is solved in Dragosantol® 100 (Bisabolol). […] The mixture is suitable for cold/cold, hot/cold and cold/cold process emulsions, gels etc.
As synergist effects in terms of efficacy had been observed, SymD Stress is solved in Dragosantol® 100 (Bisabolol). […] Mixture is suitable for cold/cold, hot/cold and cold/cold process emulsions, gels. […] (see FIG. 1). After 6M 5° C. no change in formulation containing Bisabolol. Bisabolol is a very effective solvent for Cannabidiol and helps to prevent recrystallization in target application.

For the next series, the system named is NHDF cells. Kind of series: DCF assay, cellular anti-oxidative capacity (ROS reduction). Format: cell-based, human. Here is the method: To quantify intracellular radicals in a cell model the dichlorofluorescein (DCF) assay was performed. Therefore, normal dermal human fibroblasts were used as a model for the skin dermis, where ROS would damage cells and the surrounding tissue, which as opposed to keratinocytes accumulate damage over the human life time. […] By intracellular esterases and oxidation, the non-fluorescent H2DCFDA is converted to the highly fluorescent 2′,7′-dichlorofluorescein (DCF). The non-fluorescent fluorescin (2′,7′-dichlorofluorescein diacetate (DCFH-DA) pass the cell membranes. In the cytoplasm, it is cleaved by intracellular esterases and thereby trapped in the cell. The oxidation of DCFH to DCF by intracellularly existing ROS originated from H2O2 added to the cells (reactive oxygen species) results in fluorescence.
Determination of the anti-oxidative capacity is performed in 96-well microplates from Nunc (Wiesbaden, Germany) and with the microplate reader “Spark” from Tecan (Crailsheim, Germany).
Cells are seeded in a black 96 well microplate with transparent bottom and incubated at 37° C. After 24 hours the cells were starved with 0.1% FBS for 24 h. Then the supernatant is aspirated and the test samples are added and incubated for 24 h. As a positive control Trolox is always co-tested. Then the DCF Assay is performed and the fluorescence is measured from bottom of well at EX/EM 485/528 nm. The cellular AOX capacity is expressed in percent as ROS reduction, which can be determined by rule of proportion in combination with the control.

A short description of a further series: Water solubility. Format: physicochemical.
Series [3] in a line: Color stabilization in o/w emulsion formulation. Format: physicochemical. Here is the method: Besides colour stability of pure product for end customer colour stability of the formulation is even more important. Discoloration is related for customer to shelf life, reduced efficacy and microbial contamination. Therefore, blends were tested in simple o/w emulsions adding an amino carboxylate and in the alternative a phytic acid salt. The results are shown in […]

Series [4] in a line: Colour stability of cannabidiol/bisabolol blend with stabilizers (LICO 690, L*a*b, ΔE). The format is physicochemical. The conditions noted are these: FIG. 2. Here is the method: Colour Stability is an important criterion for customers. Particularly, a product should not change colour during storage. Especially long term stability at room temperature dark stored (RTD) is important, as this simulates storage at a customer. To evaluate effect different antioxidants are tested in common used concentration (see Table 7). Colour is evaluated with LICO 690 (L*a*b-system). Results are compared with ΔE according to the following equation: […]

Setting [5] is: Table 1, 0.000034 % (0.0011 mM).
The mark [6] stands for this setting: Table 1, 0.000074 % (0.0023 mM).
The mark [7] stands for this setting: Table 1, 0.000159 % (0.0050 mM).
Where [8] appears, read: Table 1, 0.000343 % (0.0110 mM).

Where two headings read alike, the source gives them in different places.

With `C=C(C)[C@@H]1CCC(C)=C[C@H]1c1c(O)cc(CCCCC)cc1O` [CBD (natural), cannabidiol, reference compound], the IL8 inhibition with IL8 (setting [5]) is listed as −0.85%; in the series on IL8 (setting [6]), 4.84%; with IL8 (setting [7]), 11.42%; in the series on IL8 (setting [8]), 31.90%.

Take `C=C(C)[C@@H]1CCC(C)=C[C@H]1c1c(O)cc(CCCCC)cc1O` [CBD (synthetic), cannabidiol]: in series [1], the “AOX capacity compared to the technical positive control, in words” value is reported as “higher AOX capacity”. In addition, the Anti-oxidative capacity in series [1] (0.0000160 %) was 23%; in series [1] (0.0000310 %), 28%; in series [1] (0.000160 %) it was 84%; in series [1] (0.000310 %), 96%; in series [1] (0.000470 %) it was 100%; in series [1] (0.000630 %), 100%. For the same compound, in series [2] (0.025% CBD, after 1M 5° C.), the recrystallization in formulation entry is recorded as “recrystallization can be observed”. The recrystallization in emulsion result in series [2] (after 1M at Room temperature dark (RTD) storage) was “recrystallization in emulsion is observed”. Besides, the ROS reduction amounted to 24.01% in the series on NHDF cells (Table 5, 0.0000031 % (0.0001 mMol/l)); 35.43% in the series with NHDF cells (Table 5, 0.0000063 % (0.0002 mMol/l)); 34.74% with NHDF cells (Table 5, 0.0000126 % (0.0004 mMol/l)); 34.55% with NHDF cells (Table 5, 0.0000157 % (0.0005 mMol/l)); 40.61% in the series with NHDF cells (Table 5, 0.0000397 % (0.0013 mMol/l)); 48.96% in the series with NHDF cells (Table 5, 0.0000496 % (0.0016 mMol/l)). The ROS reduction is 40.4% in the series on NHDF cells (Table 5, 0.000094 % (0.0003 mMol/l)); 7.20% with NHDF cells (Table 6, 0.000001256 % (0.00004 mMol/l)); −5.44% with NHDF cells (Table 6, 0.000001570 % (0.00005 mMol/l)). Further, the “reducing intracellular ROS expression” value with NHDF cells (summary of Table 5) was “up to 50%”. Besides, in the series “Water solubility”, the “water solubility, in words” value is recorded as “low water solubility”. Also, the “anti-inflammatory activity (IL8 secretion), in words” value with IL8 is listed as “significant anti-inflammatory activity”. Further, in the series on IL8, the inhibition at 2.2 µM was determined as 6%. The inhibition at 4.6 µM in the series on IL8 was determined as 18%. In the series with IL8, the inhibition at 10 µM is 31%. For the same compound, the IL8 inhibition in the series on IL8 (setting [5]) is reported as −0.84%; with IL8 (setting [6]), 13.91%; with IL8 (setting [7]), 25.98%; with IL8 (setting [8]), 34.25%; with IL8 (Table 3, 0.000150 % (0.005 mM)) it was 21%.

For `O=C([O-])CN(CCN(CC(=O)[O-])CC(=O)O)CC(=O)O.[Na+].[Na+]` [Disodium EDTA], the “discoloration of formulation, in words” value in series [3] (after 1M storage at RTL, FIG. 3) is reported as “excellent stabilizing agent against discoloration”.

`O=C([O-])CC[C@@H](C(=O)[O-])N(CC(=O)[O-])CC(=O)[O-].[Na+].[Na+].[Na+].[Na+]` [Tetrasodium Glutamate Diacetate]: in series [3] (Table 9, FIG. 4), the “discoloration in the end-formulation, in words” value is “reduced discoloration”.

Take `CC(C)=CCC[C@](C)(O)[C@@H]1CC=C(C)CC1` [α-bisabolol, alpha-bisabolol]: in the series on NHDF cells (Table 6, 0.00002847 % (0.00100 mMol/l)), the ROS reduction is recorded as 10.61%. Moreover, the “anti-inflammatory activity (IL8 secretion), in words” value in the series with IL8 is recorded as “opposite effect”. Further, the inhibition at 2.2 µM in the series on IL8 (Table 2, 0.0022 mM) was -14%. Also, the inhibition at 4.6 µM in the series with IL8 (Table 2, 0.0046 mM) was -3%. Also, the inhibition at 10 µM with IL8 (Table 2, 0.01000 mM) came to 1%. Further, in the series on IL8 (Table 3, 0.002847 % (0.100 mM)), the IL8 inhibition was 39%.

For Tocopherol, the “discoloration of solution, in words” value in series [4] is “can prevent solution from discoloration”.
